target: WT EZH2 (EZH2 4 protein complex: EZH2, EED, SUZ12, RbAp48) (Homo sapiens, UniProt O75530+Q09028+Q15022+Q15910); assay: WT EZH2 nucleosome assay; assay type: biochemical; details: nucleosome assay, 5 nM EZH2 4-protein complex, 1.5 μM SAM; read-out: WT EZH2 IC50
Protocol: Nucleosome Assay Protocol:
A. Compound preparation • 1. Prepare 10 mM stock solutions in 100% DMSO from solid material • 2. Serial dilute 10 mM compound stocks either 2 or 3-fold in 100% DMSO to generate compounds for 11 point dose response
B. Reagent preparation • 1. Prepare 1× assay buffer containing 100 mM Tris pH 8.5, 4 mM DTT and 0.01% Tween-20 • 2. Dilute purified HeLA oligonucleosomes and recombinant histone H1 (New England Biolabs) in assay buffer to 1.67×. • 3. Dilute EZH2 4 protein complex (EZH2, EED, SUZ12, RbAp48) to 3.5× in assay buffer • 4. Prepare 10×^3H SAM solution in assay buffer using 0.94 μCi/well of radioactive SAM (Perkin Elmer) and sufficient non-labeled SAM (Sigma) for 1.5 μM final concentration. • 5. Dilute TCA to 20% in DI water
C. Enzyme reaction • 1. Final reaction conditions are 5 nM EZH2 4-protein complex, 1.5 μM SAM, 25 μg/mL oligonucleosomes, 50 nM rH1 in a 50 μl reaction volume. • 2. Add 1 μl of diluted compound to the assay plate (96-well V-bottom polypropylene plates) or 1 μl of DMSO for control wells. • 3. Add 30 μl of nucleosomes to the assay plate • 4. Add 14 μl of EZH2 4 protein complex to the assay plate • 5. Add 5 μl of ^3H SAM to start the reaction. • 6. Stop the reaction after 60 minutes with the addition of 100 μl of 20% TCA • 7. Transfer 150 μl of quenched reaction into a prepared filterplate (Millipore #MSIPN4B10) • 8. Apply vacuum to the filterplate to filter the reaction mix through the membrane. • 9. Wash the filterplate with 8×200 μl of PBS, blot dry and dry in an oven for 30 minutes • 10. Add 50 μl of microscint-20 scintillation fluid (Perkin Elmer) to each well, wait 30 minutes and count on a liquid scintillation counter.
D. Data analysis • 1. IC50 values were determined by fitting the data to a 4-parameter IC50 equation using proprietary curve fitting software.
Wild type (WT) EZH2% Effect at 20 μM and IC50 values (μM) generated in WT EZH2 or EZH2PRC2 mutant Y641N nucleosome assays are provided in Table 3 below. A blank entry in the table indicates the data was not generated in that assay.

Chain of WT EZH2 (EZH2 4 protein complex: EZH2, EED, SUZ12, RbAp48) (Q15910 whole entry): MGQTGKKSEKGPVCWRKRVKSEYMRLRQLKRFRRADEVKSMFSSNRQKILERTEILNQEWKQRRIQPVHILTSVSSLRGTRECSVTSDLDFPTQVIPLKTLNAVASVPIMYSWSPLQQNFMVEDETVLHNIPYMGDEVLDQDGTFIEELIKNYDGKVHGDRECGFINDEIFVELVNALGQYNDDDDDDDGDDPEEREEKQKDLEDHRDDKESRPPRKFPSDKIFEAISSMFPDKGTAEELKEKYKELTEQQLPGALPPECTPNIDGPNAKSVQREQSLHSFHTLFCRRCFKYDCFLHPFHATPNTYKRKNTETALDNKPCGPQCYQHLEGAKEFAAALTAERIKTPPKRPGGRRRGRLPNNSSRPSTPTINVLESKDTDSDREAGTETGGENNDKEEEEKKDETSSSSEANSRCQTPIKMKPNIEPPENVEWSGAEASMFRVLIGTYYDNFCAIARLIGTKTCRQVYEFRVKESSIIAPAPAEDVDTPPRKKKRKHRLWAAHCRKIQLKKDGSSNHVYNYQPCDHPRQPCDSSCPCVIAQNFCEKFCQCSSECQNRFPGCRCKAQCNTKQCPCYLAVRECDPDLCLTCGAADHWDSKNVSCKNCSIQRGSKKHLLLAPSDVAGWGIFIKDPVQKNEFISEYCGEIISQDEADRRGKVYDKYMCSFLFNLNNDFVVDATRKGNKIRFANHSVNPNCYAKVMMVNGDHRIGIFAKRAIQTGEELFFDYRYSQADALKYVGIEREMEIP
Chain of WT EZH2 (EZH2 4 protein complex: EZH2, EED, SUZ12, RbAp48) (O75530 whole entry partner): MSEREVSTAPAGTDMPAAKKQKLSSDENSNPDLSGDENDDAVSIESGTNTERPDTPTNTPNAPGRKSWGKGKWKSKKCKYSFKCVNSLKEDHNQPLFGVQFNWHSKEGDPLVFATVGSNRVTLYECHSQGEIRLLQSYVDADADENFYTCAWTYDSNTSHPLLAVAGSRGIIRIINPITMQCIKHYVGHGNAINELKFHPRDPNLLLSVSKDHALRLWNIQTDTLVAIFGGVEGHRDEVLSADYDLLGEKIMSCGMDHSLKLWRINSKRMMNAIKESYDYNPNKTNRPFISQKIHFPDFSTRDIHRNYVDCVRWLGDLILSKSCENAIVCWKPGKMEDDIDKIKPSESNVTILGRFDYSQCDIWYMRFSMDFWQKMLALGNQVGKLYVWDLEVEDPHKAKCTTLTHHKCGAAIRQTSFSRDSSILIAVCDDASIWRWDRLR
Chain of WT EZH2 (EZH2 4 protein complex: EZH2, EED, SUZ12, RbAp48) (Q15022 whole entry partner): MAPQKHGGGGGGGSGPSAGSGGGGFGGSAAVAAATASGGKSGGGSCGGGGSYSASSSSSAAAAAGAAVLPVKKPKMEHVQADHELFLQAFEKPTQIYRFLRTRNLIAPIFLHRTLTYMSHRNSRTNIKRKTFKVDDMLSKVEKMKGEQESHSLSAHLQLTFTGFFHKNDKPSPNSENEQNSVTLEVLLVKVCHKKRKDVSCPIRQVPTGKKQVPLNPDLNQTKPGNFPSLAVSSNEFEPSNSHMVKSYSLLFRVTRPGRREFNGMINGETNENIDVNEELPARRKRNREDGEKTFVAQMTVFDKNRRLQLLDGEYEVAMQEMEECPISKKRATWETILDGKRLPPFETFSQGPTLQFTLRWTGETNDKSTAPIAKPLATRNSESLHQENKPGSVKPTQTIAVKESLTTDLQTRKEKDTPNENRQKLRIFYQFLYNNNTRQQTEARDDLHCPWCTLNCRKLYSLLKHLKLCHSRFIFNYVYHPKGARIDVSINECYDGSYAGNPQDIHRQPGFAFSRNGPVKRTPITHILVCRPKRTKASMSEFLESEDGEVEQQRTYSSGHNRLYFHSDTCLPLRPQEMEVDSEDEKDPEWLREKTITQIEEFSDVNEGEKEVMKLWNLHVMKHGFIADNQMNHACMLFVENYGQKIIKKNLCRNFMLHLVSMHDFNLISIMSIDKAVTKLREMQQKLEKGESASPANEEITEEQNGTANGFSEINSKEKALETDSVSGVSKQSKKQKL
Chain of WT EZH2 (EZH2 4 protein complex: EZH2, EED, SUZ12, RbAp48) (Q09028 whole entry partner): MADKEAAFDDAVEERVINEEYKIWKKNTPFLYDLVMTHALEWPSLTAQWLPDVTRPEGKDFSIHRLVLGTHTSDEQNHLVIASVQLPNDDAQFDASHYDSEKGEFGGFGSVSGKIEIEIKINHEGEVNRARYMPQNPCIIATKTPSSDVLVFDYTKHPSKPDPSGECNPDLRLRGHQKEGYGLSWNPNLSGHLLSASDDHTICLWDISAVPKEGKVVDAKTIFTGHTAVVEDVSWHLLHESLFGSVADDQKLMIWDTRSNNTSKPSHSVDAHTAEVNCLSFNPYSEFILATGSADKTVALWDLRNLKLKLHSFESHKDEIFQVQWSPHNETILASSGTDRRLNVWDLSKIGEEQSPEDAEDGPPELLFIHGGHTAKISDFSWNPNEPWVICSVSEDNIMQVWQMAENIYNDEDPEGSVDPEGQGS

Row | Compound | IC50 [µM]
1 | Cc1cc(C)c(CNC(=O)c2cccc(-n3cnnc3C)c2C)c(=O)[nH]1 [Example 111, N-[(4,6-dimethyl-2-oxo-1,2-dihydropyridin-3-yl)methyl]-2-methyl-3-(3-methyl-4H-1,2,4-triazol-4-yl)benzamide] | 24.8
2 | Cc1cc(C)c(CNC(=O)c2cc(Cl)cc(-n3ncnc3C)c2C)c(=O)[nH]1 [Example 49, 5-chloro-N-[(4,6-dimethyl-2-oxo-1,2-dihydropyridin-3-yl)methyl]-2-methyl-3-(5-methyl-1H-1,2,4-triazol-1-yl)benzamide] | 1.95
3 | CSc1nc(C(=O)NCc2c(C)cc(C)[nH]c2=O)c(C)c(-c2ccnn2C)n1 [Example 72, N-[(4,6-dimethyl-2-oxo-1,2-dihydropyridin-3-yl)methyl]-5-methyl-6-(1-methyl-1H-pyrazol-5-yl)-2-(methylthio) pyrimidine-4-carboxamide] | 6.37
4 | COc1nc(C(=O)NCc2c(C)cc(C)[nH]c2=O)c(C)c(-c2ccnn2C)n1 [Example 108, N-[(4,6-dimethyl-2-oxo-1,2-dihydropyridin-3-yl)methyl]-2-methoxy-5-methyl-6-(1-methyl-1H-pyrazol-5-yl)pyrimidine-4-carboxamide] | 22.2
5 | Cc1cc(C)c(CNC(=O)c2cccc(-c3c(C#N)cnn3C)c2C)c(=O)[nH]1 [Example 76, 3-(4-cyano-1-methyl-1H-pyrazol-5-yl)-N-[(4,6-dimethyl-2-oxo-1,2-dihydropyridin-3-yl)methyl]-2-methylbenz-amide] | 6.94
6 | Cc1cc(C)c(CNC(=O)c2cc(C3=CCOCC3)cc(-c3ccnn3C)c2C)c(=O)[nH]1 [Example 20, 5-(3,6-dihydro-2H-pyran-4-yl)-N-[(4,6-dimethyl-2-oxo-1,2-dihydropyridin-3-yl)methyl]-2-methyl-3-(1-methyl-1H-pyrazol-5-yl)benzamide] | 0.19
7 | Cc1cc(C)c(CNC(=O)c2nc(N3C[C@@H]4C[C@H]3CO4)nc(N3CCC[C@@H]3C)c2C)c(=O)[nH]1 [Example 58, N-[(4,6-dimethyl-2-oxo-1,2-dihydropyridin-3-yl)methyl]-5-methyl-6-[(2S)-2 - methylpyrrolidin-1-yl]-2-[(1S,4S)-2-oxa-5-azabicyclo[2.2.1]hept-5-yl]pyrimidine-4-carboxamide] | 3.52
8 | Cc1cc(C)c(CNC(=O)c2nc(O[C@@H]3CCOC3)nc(-c3ccnn3C)c2C)c(=O)[nH]1 [Example 93, N-[(4,6-dimethyl-2-oxo-1,2-dihydropyridin-3-yl)methyl]-5-methyl-6-(1-methyl-1H-pyrazol-5-yl)-2-[(3R)-tetrahydro-furan-3-yloxy]pyrimi-dine-4-carboxamide] | 14.5
9 | Cc1cc(C)c(CNC(=O)c2cc(-c3cncnc3)cc(-c3ccnn3C)c2C)c(=O)[nH]1 [Example 17, N-[(4,6-dimethyl-2-oxo-1,2-dihydropyridin-3-yl)methyl]-2-methyl-3-(1-methyl-1H-pyrazol-5-yl)-5-pyrimidin-5-ylbenzamide] | 0.16
10 | Cc1cc(C)c(CNC(=O)c2ncnc(-c3ccnn3C)c2C)c(=O)[nH]1 [Example 124, N-[(4,6-dimethyl-2-oxo-1,2-dihydropyridin-3-yl)methyl]-5-methyl-6-(1-methyl-1H-pyrazol-5-yl)pyrimidine-4-carboxamide] | 49.3
11 | Cc1cc(C)c(CNC(=O)c2nc(-c3cnc(N(C)C)nc3)nc(-c3ccnn3C)c2C)c(=O)[nH]1 [Example 51, 2′-(dimethylamino)-N-[(4,6-dimethyl-2-oxo-1,2-dihydropyridin-3-yl)methyl]-5-methyl-6-(1-methyl-1H-pyrazol-5-yl)-2 ,5′-bipyrimidine-4-carboxamide] | 2.11
12 | Cc1cc(C)c(CNC(=O)c2cccc(-c3c(Cl)cnn3C)c2C)c(=O)[nH]1 [Example 10, 3-(4-chloro-1-methyl-1H-pyrazol-5-yl)-N-[(4,6-dimethyl-2-oxo-1,2-dihydropyridin-3-yl)methyl]-2-methylbenzamide] | 0.38
13 | CCc1cnn(C)c1-c1cccc(C(=O)NCc2c(C)cc(C)[nH]c2=O)c1C [Example 39, N-[(4,6-dimethyl-2-oxo-1,2-dihydropyridin-3-yl)methyl]-3-(4-ethyl-1-methyl-1H-pyrazol-5-yl)-2-methylbenz-amide] | 0.87
14 | CCCc1cc(C)[nH]c(=O)c1CNC(=O)c1cc(Cl)cc(-c2ccnn2C)c1C [Example 8, 5-chloro-2-methyl-N-[(6-methyl-2-oxo-4-propyl-1,2-dihydropyridin-3-yl)methyl]-3-(1-methyl-1H-pyrazol-5-yl)benzamide] | 0.88
15 | Cc1cc(C)c(CNC(=O)c2nc(-c3cnn(C)c3)nc(N3CCOC[C@@H]3C)c2C(F)(F)F)c(=O)[nH]1 [Example 104, N-[(4,6-dimethyl-2-oxo-1,2-dihydropyridin-3-yl)methyl]-6-[(3S)-3-methylmorpho-lin-4-yl]-2-(1-methyl-1H-pyrazol-4-yl)-5-(trifluoromethyl) pyrimidine-4-carboxamide] | 19.4
16 | Cc1cc(C)c(CNC(=O)c2nc(OCCN3CCC(F)(F)C3)nc(-c3ccnn3C)c2C)c(=O)[nH]1 [Example 105, 2-[2-(3,3-difluoropyrroli-din-1-yl)ethoxy]-N-[(4,6-dimethyl-2-oxo-1,2-dihydropyridin-3-yl)methyl]-5-methyl-6-(1-methyl-1H-pyrazol-5-yl)pyrimidine-4-carboxamide] | 19.8
17 | CCCc1cc(C)[nH]c(=O)c1CNC(=O)c1nc(C2CC2)nc(-c2ccnn2C)c1C [Example 118, 2-cyclopropyl-5-methyl-N-[(6-methyl-2-oxo-4-propyl-1,2-dihydropyridin-3-yl)methyl]-6-(1-methyl-1H-pyrazol-5-yl)pyrimidine-4-carboxamide] | 31.8
18 | Cc1cc(C)c(CNC(=O)c2ccnc(N3[C@H](C)CC[C@@H]3C)c2Cl)c(=O)[nH]1 [Example 97, 3-chloro-N-[(4,6-dimethyl-2-oxo-1,2-dihydropyridin-3-yl)methyl]-2-[(2R,5S)-2,5-dimethylpyrroli-din-1-yl]iso-nicotinamide] | 16.9
19 | Cc1cc(C(=O)NCc2c(C)cc(C)[nH]c2=O)c(C#N)c(OC(C)C)n1 [Example 99, 3-cyano-N-[(4,6-dimethyl-2-oxo-1,2-dihydropyridin-3-yl)methyl]-2-isopropoxy-6-methyliso-nicotinamide] | 17.6
20 | Cc1cc(C)c(CNC(=O)c2nc(N3CCOCC3)nc(N3CCC[C@@H]3C)c2C)c(=O)[nH]1 [Example 81, N-[(4,6-dimethyl-2-oxo-1,2-dihydropyridin-3-yl)methyl]-5-methyl-6-[(2S)-2-methylpyrroli-din-1-yl]-2-morpholin-4-ylpyrimidine-4-carboxamide] | 7.74
21 | Cc1cc(C)c(CNC(=O)c2ncnc(N3CCC[C@@H]3C)c2C)c(=O)[nH]1 [Example 71, N-[(4,6-dimethyl-2-oxo-1,2-dihydropyridin-3-yl)methyl]-5-methyl-6-[(2S)-2-methylpyrroli-din-1-yl]pyrimidine-4-carboxamide] | 6.33
22 | Cc1cc(C)c(CNC(=O)c2nc(N3C[C@@H]4[C@@H](N)[C@@H]4C3)nc(-c3ccnn3C)c2C)c(=O)[nH]1 [Example 56, 2-[(1R,5S,6S)-6-amino-3-azabicyclo[3.1.0]hex-3-yl]-N-[(4,6-dimethyl-2-oxo-1,2-dihydropyridin-3-yl)methyl]-5-methyl-6-(1-methyl-1H-pyrazol-5-yl)pyrimidine-4-carboxamide] | 3.18
23 | CC(=O)N[C@H]1CCN(c2ncnc(C(=O)NCc3c(C)cc(C)[nH]c3=O)c2C)C1 [Example 143, 6-[(3S)-3-azetamido-pyrrolidin-1-yl]-N-[(4,6-dimethyl-2-oxo-1,2-dihydropyridin-3-yl)methyl]-5-methylpyrimidine-4-carboxamide] | > 200
24 | CCn1ncc(C)c1-c1cccc(C(=O)NCc2c(C)cc(C)[nH]c2=O)c1C [Example 12, N-[(4,6-dimethyl-2-oxo-1,2-dihydropyridin-3-yl)methyl]-3-(1-ethyl-4-methyl-1H-pyrazol-5-yl)-2-methylbenzamide] | 0.11
25 | CCC1CCCN1c1ncnc(C(=O)NCc2c(C)cc(C)[nH]c2=O)c1C (centres unmarked) [Example 95, N-[(4,6-dimethyl-2-oxo-1,2-dihydropyridin-3-yl)methyl]-6-(2-ethylpyrrolidin-1-yl)-5-methylpyrimi-dine-4-carboxamide] | 16.5
26 | Cc1cc(C)c(CNC(=O)c2nc(C3CC3)nc(N3CCC[C@@H]3C)c2C)c(=O)[nH]1 [Example 54, 2-cyclopropyl-N-[(4,6-dimethyl-2-oxo-1,2-dihydropyridin-3-yl)methyl]-5-methyl-6-[(2S)-2-methylpyrrolidin-1-yl]pyrimidine-4-carboxamide] | 2.83
